From patent publication US20250290057A1, “LYTIC AGENT FOR ENTEROCOCCUS FAECALIS” (priority 2022, published 2025)
Values after ≈ are worked out from the molar mass of the structure shown.

Assays:
[1] = test system: E. faecalis isolates; test: Minimal inhibitory concentration of antibacterial agents, "Eiken" DP42 dry plate; format: cell-based, Enterococcus faecalis; details: for MIC: Enterococcus faecalis, read-out: Minimal inhibitory concentration; for Sensitivity of strains to antibacterial agent: all E. faecalis strains (11 strains)
Protocol: (§1) The sensitivity to an antibacterial agent for each of the above-described 30 Enterococcus bacterial strains was invenstigated. Specifically, the bacterial strains prepared in 1 McFarland standard with physiological saline were diluted 500-fold with a BHI culture medium, and then aerobically cultured in solid-phase wells of an “Eiken” DP42 dry plate (Eiken Chemical Co., Ltd., Tokyo, Japan) for 24 hours.
(§2) The minimal inhibitory concentration of any one of the antibacterial agents, i.e., daptomycin (DAP), vancomycin (VCM), teicoplanin (TEIC), and linezolid (LZD), was determined in accordance with the instruction of the product. […] The results obtained by testing resistance to the antibacterial agents of the E. faecalis strains (11 strains) are shown in Table 1 below.

[2] = test system: E. faecium isolates; test: as above; format: cell-based, Enterococcus faecium; details: all E. faecium (19 strains)
Protocol: as §1, §2

[3] = test system: GVHD model mice in which patient feces (OCU031_14) with Enterococcus dominance was transplanted; test: Administration to GVHD model mice in which fecal sample was transplanted; format: in vivo; details: 200 μg orally three times a week
Protocol: All the animal experiments were performed with the approval of the Animal Care and Use Committee of Osaka Metropolitan University. […] The survival rate after Day 0 was monitored every day, and the composition of the enteric microbes on each of Day 0 and Day 8 was analyzed by 16S rRNA gene sequencing.

[4] = test system: GVHD model mice to which E. faecalis OCU031_14_8 strain was administered; test: Administration to GVHD model mice to which E. faecalis was administered; format: in vivo
Protocol: All the animal experiments were performed with the approval of the Animal Care and Use Committee of Osaka Metropolitan University. Germ-free C57BL/6 female mice (H2k^b) and SPF 129SvJ/JmsSlc female mice (6 to 8 weeks old) were purchased from SLC Japan Inc. (Hamamatsu, Japan) and CLEA Japan, Inc. (Tokyo, Japan) respectively. The mice were reared under temperature control (23±2° C.) under dark-period conditions from 8 pm to 8 am, and allowed to freely take sterile water and standard solid food for laboratory mice. The germ-free C57BL/6 mice were reared, one individual in one cage.
Before the stem cell transplantation, a suspension of E. faecalis OCU031_14_8 strain was orally administered to the germ-free C57BL/6 female mice. The suspension used was a suspension in which a 2.0×10^8 colony forming unit (cfu) was suspended in 200 μL of sterile PBS. […]
The survival rate after Day 0 was monitored every day. All the survival periods of the groups were statistically analyzed and compared using a generalized Wilcoxon test. […] The number of colonies formed was measured to quantify the amount of E. faecalis bacteria in the feces. […]

[5] = test system: E. faecalis isolate OCU031_14_8; test: Lytic activity by turbidity (OD600) of cell resuspension liquid; format: cell-based, Enterococcus faecalis; details: final concentration of 50 μg/mL
Protocol: The E. faecalis isolate OCU031_14_8 was aerobically cultured in a BHI culture medium, and centrifuged at 3,000×g for 15 minutes for collection. The cell pellets were washed, and resuspended in a HiTrap buffer. The phage-derived endolysin was added at a final concentration of 50 μg/mL to the cell resuspension liquid. The turbidity (OD600) was measured with a TVS062CA BioPhoto recorder (ADVANTEC Co., Ltd., Tokyo, Japan) every 1 minute to measure the lytic activity.

[6] = test system: E. faecalis strains JCM5803, JCM8902; test: Lytic activity using presence or absence of a bacterial lump as an index; format: cell-based; set-up: key to Lysis by endolysin: lyzed: +; not lyzed: −; details: 50 μg/mL; for Lysis by endolysin: 37° C.
Protocol: (§3) The hemolytic activity of each of the bacterial strains was measured with a hemolysis assay using a Nissui Plate Horse Blood Agar medium. The cytolysin-related gene was detected with PCR. The vancomycin resistance was evaluated using the method described in (2) in Example 2. The vanA gene and the vanB gene that are vancomycin-resistant genes were detected with PCR. Furthermore, each bacterial strain was aerobically cultured in a BHI culture medium, and centrifuged at 300×g for 5 minutes for collection. The cell pellets were washed, and resuspended in a HiTrap buffer. The phage-derived endolysin was added at a final concentration of 50 μg/mL to the cell resuspension liquid. The resulting suspension was incubated at 37° C., and the lytic activity was measured, using the presence or absence of a bacterial lump as an index.

[7] = test system: E. faecium strain JCM5804; test: as above; format: cell-based; set-up: key to Lysis by endolysin: lyzed: +; not lyzed: −; details: 50 μg/mL
Protocol: as §3

[8] = test system: biofilms of 11 E. faecalis isolates; test: Biofilm assay using crystal-violet staining; format: cell-based, Enterococcus faecalis; details: final concentration of 50 μg/mL, incubated overnight; all 11 E. faecalis strains
Protocol: A biofilm assay was performed, using crystal-violet staining, in accordance with a method described in the past literature (Yang, Y., et al., J Appl Oral Sci., 2018, 26: e20170566; Shao, C., et al., J Proteome res., 2012, 11 (9): 4465-75; He Z., et al., Int J Antimicrob Agents., 2012, 40 (1): 30-5). This assay is a method in which a crystal violet pigment is adsorbed into a bacteria-derived biofilm (comprising an extracellular matrix and the like), and then, ethanol is added to the resulting biofilm to elute the crystal violet pigment, the absorbance of which is measured to quantify the amount of the pigment.
Specifically, each of the 11 species of E. faecalis isolates was cultured at 37° C. overnight in a BHI culture medium supplemented with aztreonam (20 μg/mL), polymyxinB (20 μg/mL), and amphotericinB (4 μg/mL). Then, the isolate was diluted 100-fold with a new BHI culture medium, inoculated into a 96-well flat-bottomed polystyrene microtiter plate (Corning, Inc., Arizona, USA, 353072), and aerobically cultured further at 37° C. for 24 hours. Then, the 96-well plate was washed once with 200 μL of a HiTrap buffer, and 200 μL of phage-derived endolysin or a vehicle (SUMO protein having a His tag added thereto) was added (at a final concentration of 50 μg/mL). […] The absorbance of the sample was measured at 570 nm. […]

[9] = E. faecalis strain OCU009_35_10
[10] = E. faecalis strain OCU031_pre_6
[11] = E. faecalis strain OCU031_pre_7
[12] = E. faecalis strain OCU031_pre_10

## CCCCCCCCCC(=O)N[C@@H](Cc1c[nH]c2ccccc12)C(=O)N[C@H](CC(N)=O)C(=O)N[C@@H](CC(=O)O)C(=O)N[C@@H]1C(=O)NCC(=O)N[C@@H](CCCN)C(=O)N[C@@H](CC(=O)O)C(=O)N[C@H](C)C(=O)N[C@@H](CC(=O)O)C(=O)NCC(=O)N[C@H](CO)C(=O)N[C@@H]([C@H](C)CC(=O)O)C(=O)N[C@@H](CC(=O)c2ccccc2N)C(=O)O[C@@H]1C [daptomycin]
[1]; E. faecalis strain OCU009_35_4
  Minimal inhibitory concentration: >4 µg/mL
[1]; [9]
  Minimal inhibitory concentration: >4 µg/mL
[1]; E. faecalis strain OCU015_56_6
  Minimal inhibitory concentration: >4 µg/mL
[1]; E. faecalis strain OCU031_7_1
  Minimal inhibitory concentration: >4 µg/mL
[1]; E. faecalis strain OCU031_7_9
  Minimal inhibitory concentration: >4 µg/mL
[1]; E. faecalis strain OCU031_14_5
  Minimal inhibitory concentration: >4 µg/mL
[1]; E. faecalis strain OCU031_14_8
  Minimal inhibitory concentration: >4 µg/mL
[1]; [10]
  Minimal inhibitory concentration: >4 µg/mL
[1]; [11]
  Minimal inhibitory concentration: >4 µg/mL
[1]; [12]
  Minimal inhibitory concentration: >4 µg/mL
[1]; E. faecalis strain OCU015_56_7
  MIC: > 4 µg/mL
[1]
  Sensitivity of strains to antibacterial agent: exhibited sensitivity
[2]
  Sensitivity of strains to antibacterial agent: exhibited sensitivity

## CC(=O)NC[C@H]1CN(c2ccc(N3CCOCC3)c(F)c2)C(=O)O1 [linezolid]
[1]; E. faecalis strain OCU009_35_4
  Minimal inhibitory concentration: 2 µg/mL (≈ 5.93 µM)
[1]; [9]
  Minimal inhibitory concentration: 2 µg/mL (≈ 5.93 µM)
[1]; E. faecalis strain OCU015_56_6
  Minimal inhibitory concentration: 2 µg/mL (≈ 5.93 µM)
[1]; E. faecalis strain OCU031_7_1
  Minimal inhibitory concentration: 2 µg/mL (≈ 5.93 µM)
[1]; E. faecalis strain OCU031_7_9
  Minimal inhibitory concentration: 2 µg/mL (≈ 5.93 µM)
[1]; E. faecalis strain OCU031_14_5
  Minimal inhibitory concentration: 2 µg/mL (≈ 5.93 µM)
[1]; E. faecalis strain OCU031_14_8
  Minimal inhibitory concentration: 2 µg/mL (≈ 5.93 µM)
[1]; [10]
  Minimal inhibitory concentration: 2 µg/mL (≈ 5.93 µM)
[1]; [11]
  Minimal inhibitory concentration: 2 µg/mL (≈ 5.93 µM)
[1]; [12]
  Minimal inhibitory concentration: 2 µg/mL (≈ 5.93 µM)
[1]; E. faecalis strain OCU015_56_7
  MIC: 2 µg/mL (≈ 5.93 µM)
[1]
  Sensitivity of strains to antibacterial agent: exhibited sensitivity
[2]
  Sensitivity of strains to antibacterial agent: exhibited sensitivity

## teicoplanin
[1]; E. faecalis strain OCU009_35_4
  Minimal inhibitory concentration: 1 µg/mL
[1]; [9]
  Minimal inhibitory concentration: 2 µg/mL
[1]; E. faecalis strain OCU015_56_6
  Minimal inhibitory concentration: 0.5 µg/mL
[1]; E. faecalis strain OCU015_56_7
  Minimal inhibitory concentration: 0.5 µg/mL
[1]; E. faecalis strain OCU031_7_1
  Minimal inhibitory concentration: 2 µg/mL
[1]; E. faecalis strain OCU031_7_9
  Minimal inhibitory concentration: 2 µg/mL
[1]; E. faecalis strain OCU031_14_5
  Minimal inhibitory concentration: 1 µg/mL
[1]; E. faecalis strain OCU031_14_8
  Minimal inhibitory concentration: 1 µg/mL
[1]; [10]
  Minimal inhibitory concentration: 1 µg/mL
[1]; [11]
  Minimal inhibitory concentration: 1 µg/mL
[1]; [12]
  Minimal inhibitory concentration: 1 µg/mL
[1]
  Sensitivity of strains to antibacterial agent: exhibited sensitivity
[2]
  Sensitivity of strains to antibacterial agent: exhibited sensitivity

B1: phage-derived endolysin: endolysin of SEQ ID NO: 1 found in prophage sequences of 11 E. faecalis isolates; produced from a His-SUMO-labeled expression vector (protein)
chain: MTLNGIDISSWQSNINVGKEGVSADFVIIKATGGTGYINPDCDRAFQQAISSGKKVAVYHFANEVGLEGTAEQEAEFFLKNIKGYIGKAVLVLDWESTNKGDVPWAKRWLDYVQSKTGVKPMFYTYTNVLQSYNFSSIAKADYGLWLADYGANNPQGYSQPTPPSVPYWNFISMYQYTSNGQLPGWNGRLDLNVFFGDRNMWDKYANPKSNPTPAPPVPPKPKRRYGYRVDDLQFVNGIWQVRNDVLGQPDFDWTENGINVAYIDKINPATGENTPDQELKVGDYFAFQPSSVGIITEQYSLNGKTISHVQFPDEFIWLYTESVEKLIYG
modifications: His-SUMO tag; Enterococcus faecalis-derived prophage
notes: produced from a His-SUMO-labeled expression vector
[3]; 8 days after the stem cell transplantation, 16S rRNA gene sequencing
  Ratio of Enterococcus bacteria present in the enteric microbes: decreased significantly
[3]; 30 days after the stem cell transplantation
  Survival rate: 100%
[4]; 200 μg orally three times a week (10 mg/kg/day) from Day 0 until the third week
  Amount of the E. faecalis bacteria in the feces: noticeable decrease
[4]; 25 days after the stem cell transplantation, 200 μg orally three times a week
  Survival rate: 100%
[5]
  Lytic activity (OD600 turbidity): lysed
[6]; JCM8902 strain, vancomycin-resistant and cytolysin-positive E. faecalis isolate
  Lytic activity: exhibited a lytic activity
[6]; strain JCM5803
  Lysis by endolysin: +
[6]; strain JCM8902 (vancomycin-resistant, cytolysin-positive)
  Lysis by endolysin: +
[7]; JCM5804 strain, E. faecium isolate
  Lytic activity: did not exhibit a lytic activity
[7]; strain JCM5804, 37° C.
  Lysis by endolysin: −
[8]
  Lysis of biofilm (crystal violet, absorbance at 570 nm): lysed
